Test results published in ChEMBL document CHEMBL4483862, “Open-source discovery of chemical leads for next-generation chemoprotective antimalarials” (2018).

Tested on: Plasmodium berghei
Assay: Luciferase/luciferin-expressing antifolate-resistant parasites were used to infect a culture of HepG2 cells that were pre-incubated with compounds. Infected hepatocytes emit light due to the luciferase reaction. Assay results are presented as the percent inhibition of light emission compared to control. […]
Format: functional
Details: sporozoite; for IC90: read-out: LUCIFERASE INFECTION ASSAY - IC90

Row | SMILES | IC90 | other results
1 | O=C(Nc1cccc(Cl)c1)Nc1csc([N+](=O)[O-])c1 | 9.45 µM | IC50 (HEPG2TOX_HILL_SLOPE 11, HEPG2TOX_R_SQUARED 0.423, PBLUC_HILL_SLOPE 4.17, PBLUC_R_SQUARED 0.367, read-out: LUCIFERASE INFECTION ASSAY - IC50): 5.58 µM
2 | Cc1[nH]c2ccccc2c1C1=NN=C(Nc2ccc(F)cc2)SC1 | > 10 µM | IC50 (HEPG2TOX_HILL_SLOPE 10.5, HEPG2TOX_R_SQUARED 0.592, PBLUC_HILL_SLOPE 2.25, PBLUC_R_SQUARED 0.706, read-out: LUCIFERASE INFECTION ASSAY - IC50): 5.54 µM
3 | O=C(Cn1ncc(Br)c(Br)c1=O)C12CC3CC(CC(C3)C1)C2 | > 10 µM | IC50 (HEPG2TOX_HILL_SLOPE 11, HEPG2TOX_R_SQUARED 0.947, PBLUC_HILL_SLOPE 1.04, PBLUC_R_SQUARED 0.291, read-out: LUCIFERASE INFECTION ASSAY - IC50): 2.75 µM
4 | O=C(Nc1cc(C(F)(F)F)cc(C(F)(F)F)c1)c1csc([N+](=O)[O-])c1 | 7.1 µM | IC50 (HEPG2TOX_HILL_SLOPE 11, HEPG2TOX_R_SQUARED 0.957, PBLUC_HILL_SLOPE 1.57, PBLUC_R_SQUARED 0.511, read-out: LUCIFERASE INFECTION ASSAY - IC50): 1.75 µM
5 | O=C(/C=C/c1ccc(-c2ccccc2Cl)s1)N1CCN(c2ncccn2)CC1 | > 10 µM | IC50 (HEPG2TOX_HILL_SLOPE 11.1, HEPG2TOX_R_SQUARED 0.736, PBLUC_HILL_SLOPE 11.3, PBLUC_R_SQUARED 0.239, read-out: LUCIFERASE INFECTION ASSAY - IC50): 9.23 µM
6 | C/C(Cn1nnc(-c2ccc(C(F)(F)F)cc2)n1)=N\NC(N)=S | 3.45 µM | IC50 (HEPG2TOX_HILL_SLOPE 10.9, HEPG2TOX_R_SQUARED 0.527, PBLUC_HILL_SLOPE 12.4, PBLUC_R_SQUARED 0.37, read-out: LUCIFERASE INFECTION ASSAY - IC50): 2.89 µM
7 | C/C(=N\NC(=O)Nc1ccc(Cl)cc1)c1ccc2c(c1)OCCO2 | 9.81 µM | IC50 (HEPG2TOX_HILL_SLOPE 11.1, 2.08, HEPG2TOX_R_SQUARED 0.732, 0.913, PBLUC_HILL_SLOPE 3.29, PBLUC_R_SQUARED 0.645, read-out: LUCIFERASE INFECTION ASSAY - IC50): 5.03 µM
8 | CC(C)(C)CC(C)(C)c1ccc(OCC(O)CNC2CCC(O)CC2)cc1 (centres undefined) | 7.58 µM | IC50 (HEPG2TOX_HILL_SLOPE 10.5, HEPG2TOX_R_SQUARED 0.116, PBLUC_HILL_SLOPE 3.56, PBLUC_R_SQUARED 0.606, read-out: LUCIFERASE INFECTION ASSAY - IC50): 4.09 µM
9 | CS(=O)(=O)Nc1cccc(-c2cn3c(-c4ccc(Cl)cc4)cnc3cn2)c1 | 1.05 µM | IC50 (HEPG2TOX_HILL_SLOPE 10.9, HEPG2TOX_R_SQUARED 0.801, PBLUC_HILL_SLOPE 12.2, PBLUC_R_SQUARED 0.805, read-out: LUCIFERASE INFECTION ASSAY - IC50): 0.873 µM
10 | COc1ccc2nc(C(=O)NNC(=O)c3cc(C)oc3C)ccc2c1 | > 10 µM | IC50 (HEPG2TOX_HILL_SLOPE 10.5, HEPG2TOX_R_SQUARED 0.205, PBLUC_HILL_SLOPE 2.55, PBLUC_R_SQUARED 0.459, read-out: LUCIFERASE INFECTION ASSAY - IC50): 6.67 µM
11 | O=C(/C=C/c1ccc2ccccc2n1)N1CCCC(c2nc3ccccc3[nH]2)C1 (centres undefined) | 9.5 µM | IC50 (HEPG2TOX_HILL_SLOPE 11.0, 10.5, HEPG2TOX_R_SQUARED 0.675, 0.360, PBLUC_HILL_SLOPE 2.71, 0.363, PBLUC_R_SQUARED 0.567, 0.526, read-out: LUCIFERASE INFECTION ASSAY - IC50): 2.81 µM
12 | CCn1nc(C)c(Sc2nccn2C)c1C | > 14 µM | IC50 (HEPG2TOX_HILL_SLOPE 10.5, HEPG2TOX_R_SQUARED 0.481, PBLUC_HILL_SLOPE 1.71, PBLUC_R_SQUARED 0.393, read-out: LUCIFERASE INFECTION ASSAY - IC50): 4.63 µM
13 | Cc1ccccc1N1CCN(C(=O)c2ccc(Cl)c(S(=O)(=O)NCc3ccccc3)c2)CC1 | > 10 µM | IC50 (HEPG2TOX_HILL_SLOPE 11.1, HEPG2TOX_R_SQUARED 0.861, PBLUC_HILL_SLOPE 8.51, PBLUC_R_SQUARED 0.104, read-out: LUCIFERASE INFECTION ASSAY - IC50): 9.26 µM
14 | O=C(Nc1cccc(C(F)(F)F)c1)Nc1ccc2nc(Cc3ccccc3)nn2c1 | 3.8 µM | IC50 (HEPG2TOX_HILL_SLOPE 10.6, HEPG2TOX_R_SQUARED 0.963, PBLUC_HILL_SLOPE 15.5, PBLUC_R_SQUARED 0.643, read-out: LUCIFERASE INFECTION ASSAY - IC50): 3.3 µM
15 | COc1ccccc1CN1C(=O)C=CC1=O | > 15.2 µM | IC50 (HEPG2TOX_HILL_SLOPE 11.1, HEPG2TOX_R_SQUARED 0.957, PBLUC_HILL_SLOPE 12.9, PBLUC_R_SQUARED 0.465, read-out: LUCIFERASE INFECTION ASSAY - IC50): 13.8 µM
16 | CC(C)N(C(=O)NC(=O)Nc1nc(-c2ccccc2)cs1)S(C)(=O)=O | > 10 µM | IC50 (HEPG2TOX_HILL_SLOPE 10.9, HEPG2TOX_R_SQUARED 0.151, read-out: LUCIFERASE INFECTION ASSAY - IC50): > 10 µM

Row | SMILES | IC90 | other results
17 | CCOc1cc(/C=C/C(=O)c2nc3ccccc3s2)cc(Cl)c1OCC(=O)N(C)C | 4.79 µM | IC50 (HEPG2TOX_HILL_SLOPE 10.9, HEPG2TOX_R_SQUARED 0.987, PBLUC_HILL_SLOPE 8.99, 3.54, PBLUC_R_SQUARED 0.449, 0.614, read-out: LUCIFERASE INFECTION ASSAY - IC50): 4.84 µM
18 | O=C(Nc1ccc(SC(F)(F)F)cc1)N1CCN(c2nc3ccc(Cl)cc3s2)CC1 | > 6.98 µM | IC50 (HEPG2TOX_HILL_SLOPE 11, HEPG2TOX_R_SQUARED 0.778, PBLUC_HILL_SLOPE 2.23, PBLUC_R_SQUARED 0.377, read-out: LUCIFERASE INFECTION ASSAY - IC50): 3.77 µM
19 | CNc1nc2cnc(Nc3cc(C(F)(F)F)ccc3F)cc2n1Cc1ccco1 | > 10 µM | IC50 (HEPG2TOX_HILL_SLOPE 10.6, HEPG2TOX_R_SQUARED 0.165, read-out: LUCIFERASE INFECTION ASSAY - IC50): > 10 µM
20 | N#CCCNS(=O)(=O)c1ccc(C(=O)Nc2ccc(Nc3ccccc3)cc2)cc1 | 3.71 µM | IC50 (HEPG2TOX_HILL_SLOPE 10.9, HEPG2TOX_R_SQUARED 0.158, PBLUC_HILL_SLOPE 11.4, PBLUC_R_SQUARED 0.555, read-out: LUCIFERASE INFECTION ASSAY - IC50): 3.06 µM
21 | CC(C)(C(=O)NNC(=O)c1ccc2ccccc2n1)c1ccccc1 | 7.01 µM | IC50 (HEPG2TOX_HILL_SLOPE 11.1, HEPG2TOX_R_SQUARED 0.756, PBLUC_HILL_SLOPE 1.23E+03, PBLUC_R_SQUARED 0.165, read-out: LUCIFERASE INFECTION ASSAY - IC50): 7 µM
22 | O=S(=O)(NC1CCCCCCC1)c1ccc(S(=O)(=O)C(F)F)cc1 | > 10 µM | IC50 (HEPG2TOX_HILL_SLOPE 11.1, HEPG2TOX_R_SQUARED 0.22, read-out: LUCIFERASE INFECTION ASSAY - IC50): > 10 µM
23 | O=[N+]([O-])c1c(N2CCOCC2)ccc2nsnc12 | > 12.4 µM | IC50 (HEPG2TOX_HILL_SLOPE 10.9, HEPG2TOX_R_SQUARED 0.296, read-out: LUCIFERASE INFECTION ASSAY - IC50): > 12.4 µM
24 | COc1cc(C(=O)Nc2cccc(-c3nc4ccccc4[nH]3)c2)cc(Cl)c1OC | 8.28 µM | IC50 (HEPG2TOX_HILL_SLOPE 11, HEPG2TOX_R_SQUARED 0.706, PBLUC_HILL_SLOPE 2.74, PBLUC_R_SQUARED 0.344, read-out: LUCIFERASE INFECTION ASSAY - IC50): 3.71 µM
25 | Fc1ccc(CNc2ncnc3ccc(Cl)cc23)cc1 | 9.51 µM | IC50 (HEPG2TOX_HILL_SLOPE 10.6, HEPG2TOX_R_SQUARED 0.947, PBLUC_HILL_SLOPE 2.4, PBLUC_R_SQUARED 0.787, read-out: LUCIFERASE INFECTION ASSAY - IC50): 3.81 µM
26 | COc1cccc(-c2nc(C(=O)Nc3ccc4nc(C(C)(C)C)[nH]c4c3)cs2)c1OC | 9.22 µM | IC50 (HEPG2TOX_HILL_SLOPE 10.6, HEPG2TOX_R_SQUARED 0.787, PBLUC_HILL_SLOPE 3.59, PBLUC_R_SQUARED 0.651, read-out: LUCIFERASE INFECTION ASSAY - IC50): 4.99 µM
27 | N#CC(C#N)=NNc1ccc(OC(F)(F)F)cc1 | > 13 µM | IC50 (HEPG2TOX_HILL_SLOPE 11.1, HEPG2TOX_R_SQUARED 0.969, PBLUC_HILL_SLOPE 0.201, PBLUC_R_SQUARED 0.0877, read-out: LUCIFERASE INFECTION ASSAY - IC50): 0.245 µM
28 | Cc1cc2nc(Nc3cccc(Cl)c3)c3ccccc3n2n1 | > 10 µM | IC50 (HEPG2TOX_HILL_SLOPE 10.5, HEPG2TOX_R_SQUARED 0.708, PBLUC_HILL_SLOPE 3.62, PBLUC_R_SQUARED 0.793, read-out: LUCIFERASE INFECTION ASSAY - IC50): 7.73 µM
29 | COc1cc(-c2nc3ccc(NC(=O)Nc4ccc(OC(F)(F)F)cc4)cn3n2)cc(OC)c1OC | 4.73 µM | IC50 (HEPG2TOX_HILL_SLOPE 11.1, HEPG2TOX_R_SQUARED 0.679, PBLUC_HILL_SLOPE 2.84, PBLUC_R_SQUARED 0.644, read-out: LUCIFERASE INFECTION ASSAY - IC50): 2.18 µM
30 | O=C(/C=C/c1cccc(NC(=O)C(F)(F)F)c1)c1cc2ccccc2o1 | 5.08 µM | IC50 (HEPG2TOX_HILL_SLOPE 11, HEPG2TOX_R_SQUARED 0.396, PBLUC_HILL_SLOPE 8.92, PBLUC_R_SQUARED 0.395, read-out: LUCIFERASE INFECTION ASSAY - IC50): 3.97 µM
31 | Cc1cc(C(C)(C)C)cc(C)c1CCNC(=O)C1CC1C (centres undefined) | 9.15 µM | IC50 (HEPG2TOX_HILL_SLOPE 11.1, HEPG2TOX_R_SQUARED 0.0296, PBLUC_HILL_SLOPE 3.7, PBLUC_R_SQUARED 0.553, read-out: LUCIFERASE INFECTION ASSAY - IC50): 5.05 µM
32 | O=C(Nc1ccc(C(F)(F)F)cc1[N+](=O)[O-])c1ccccc1O | 3.69 µM | IC50 (HEPG2TOX_HILL_SLOPE 10.5, HEPG2TOX_R_SQUARED 0.302, PBLUC_HILL_SLOPE 15.7, PBLUC_R_SQUARED 0.498, read-out: LUCIFERASE INFECTION ASSAY - IC50): 3.21 µM
